Measured values published in patent US20250003970A1, “FRET ENZYMATIC SUBSTRATE AND USES THEREOF IN LUNG CANCER” (URTESTE S.A., priority 2021, published 2025).
Several values for one entry are separate records, joined by “and”; a condition that tells them apart may be missing. Equal values may be shown once. Starred links: 1 amine or outer side, 2 acyl side, 3 side chain; linkers in the order of their positions; H or OH if unused. Non-standard residues stand in square brackets, D forms with d. No end group written: not given here. Benzoyl(5-NH,2-NO2) = O=C(c1cc(N[*:1])ccc1[N+](=O)[O-])[*:2]; 2Abz = Nc1ccccc1C(=O)O

Tests used:
Type in all cases: biochemical, human
[1] = test system: urine samples from patients with diagnosed cancers; assay: Selectivity of substrate cleavage in urine from patients with different cancers
Text: Arabic numerals indicate the numbers of given cancer types. The samples tested for each type of cancer were derived from 20 different patients for each of the tested cancers. The results are mean values for given cancer types.
(§1) The activity of the novel compounds according to the invention was studied in a group of 20 subjects diagnosed with lung cancer using the representative compound according to the invention. […] The remaining compounds according to the invention are characterized by the analogous mechanism of action. For this purpose, the representative compound according to the invention, ABZ^1-Tyr^2-Ile^3-Phe^4-Arg^5-ANB^6-NH2, was dissolved in dimethyl sulfoxide (at a concentration of 0.5 mg/mL) and then 50 μL of the solution was mixed with 120 μL of a buffer (200 mM Tris-HCl, pH 8.0) and 80 μL of urine from a subject suffering from lung cancer. The measurement was performed on a 96-well plate designed for measuring absorbance and each sample was analysed in triplicate at the temperature of 37° C. The duration of the measurement was 60 minutes. During the measurement, the wavelength characteristic for the chromophore (ANB-NH2) being released was monitored at the wavelength 405 nm (range 380-430 nm).
Furthermore, the dependence of the cleavage selectivity of the substrate, i.e. the compound according to the invention, on the cancer being examined, was studied. […]

[2] = test system: enzymatic activity specific to lung cancer in urine from a subject suffering from lung cancer; assay: Absorbance measurement of substrate hydrolysis in urine from subjects with lung cancer; settings: for absorbance (Results of absorbance analysis): 405 nm, 37° C., 60 minutes, pH 8.0, triplicate
Experimental: as §1

[3] = test system: urine samples taken from healthy persons; assay: Absorbance measurement of substrate hydrolysis in urine from healthy subjects; settings: for absorbance (Results of absorbance analysis): healthy person, 405 nm, 37° C., 60 minutes, pH 8.0, triplicate

ABZ-Tyr-Ile-Phe-Arg-ANB-NH2 ([2Abz]YIFR-{Benzoyl(5-NH,2-NO2)-NH2}) [chromogenic/fluorogenic FRET peptide substrate, ABZ = 2-aminobenzoic acid, ANB-NH2 = amide of 5-amino-2-nitrobenzoic acid]
selectivity of hydrolysis of the substrate ([1]; lung cancer urine (sample 1) vs other neoplastic disease (samples 2-9), FIG. 3, mean values): selectivity of substrate cleavage in the case of urine from patients with lung cancer
cleavage / increase in absorbance ([1]; samples from patients with testicular, intestine, kidney, prostate, pancreatic, bile duct, lung, ovarian, and rectum cancer): is not subject to cleavage
cleavage of the substrate ([2]; all samples 1-50 from persons suffering from lung cancer): underwent cleavage
efficiency of cleavage of the substrate ([2]; samples 7 and 16 compared with samples 50 or 42 (FIG. 2)): less efficiently
absorbance (Results of absorbance analysis) ([2]; urine sample 7, lung cancer): 0.0015 and 0.0017 and 0.002
absorbance (Results of absorbance analysis) ([2]; urine sample 8, lung cancer): 0.0032 and 0.0031 and 0.0036
absorbance (Results of absorbance analysis) ([2]; urine sample 9, lung cancer): 0.026 and 0.0294 and 0.025
absorbance (Results of absorbance analysis) ([2]; urine sample 10, lung cancer): 0.0403 and 0.0738 and 0.056
absorbance (Results of absorbance analysis) ([2]; urine sample 11, lung cancer): 0.0195 and 0.019 and 0.0188
absorbance (Results of absorbance analysis) ([2]; urine sample 12, lung cancer): 0.0056 and 0.0068 and 0.0062
absorbance (Results of absorbance analysis) ([2]; urine sample 13, lung cancer): 0.063 and 0.0633 and 0.0632
absorbance (Results of absorbance analysis) ([2]; urine sample 14, lung cancer): 0.018 and 0.0176 and 0.0179
absorbance (Results of absorbance analysis) ([2]; urine sample 15, lung cancer): 0.015 and 0.0139 and 0.0146
absorbance (Results of absorbance analysis) ([2]; urine sample 16, lung cancer): 0.0015 and 0.0016 and 0.002
absorbance (Results of absorbance analysis) ([2]; urine sample 17, lung cancer): 0.0096 and 0.0095 and 0.0102
absorbance (Results of absorbance analysis) ([2]; urine sample 18, lung cancer): 0.0104 and 0.019 and 0.0156
absorbance (Results of absorbance analysis) ([2]; urine sample 20, lung cancer): 0.0443 and 0.0299 and 0.036
absorbance (Results of absorbance analysis) ([2]; urine sample 21, lung cancer): 0.0215 and 0.022 and 0.0256
absorbance (Results of absorbance analysis) ([2]; urine sample 22, lung cancer): 0.0301 and 0.0349 and 0.035
absorbance (Results of absorbance analysis) ([2]; urine sample 23, lung cancer): 0.0732 and 0.0483 and 0.065
absorbance (Results of absorbance analysis) ([2]; urine sample 25, lung cancer): 0.0703 and 0.0549 and 0.062
absorbance (Results of absorbance analysis) ([2]; urine sample 26, lung cancer): 0.149 and 0.1049 and 0.103
absorbance (Results of absorbance analysis) ([2]; urine sample 27, lung cancer): 0.1005 and 0.1078 and 0.106
absorbance (Results of absorbance analysis) ([2]; urine sample 28, lung cancer): 0.0613 and 0.0765 and 0.072
absorbance (Results of absorbance analysis) ([2]; urine sample 29, lung cancer): 0.0203 and 0.0218 and 0.025
absorbance (Results of absorbance analysis) ([2]; urine sample 30, lung cancer): 0.1595 and 0.1543 and 0.156
absorbance (Results of absorbance analysis) ([2]; urine sample 31, lung cancer): 0.0346 and 0.0306 and 0.036
absorbance (Results of absorbance analysis) ([2]; urine sample 32, lung cancer): 0.01457 and 0.0186 and 0.0159
absorbance (Results of absorbance analysis) ([2]; urine sample 33, lung cancer): 0.07 and 0.0625 and 0.0687
absorbance (Results of absorbance analysis) ([2]; urine sample 34, lung cancer): 0.0421 and 0.0243 and 0.036
absorbance (Results of absorbance analysis) ([2]; urine sample 35, lung cancer): 0.0402 and 0.0714 and 0.0632
absorbance (Results of absorbance analysis) ([2]; urine sample 36, lung cancer): 0.0046 and 0.0057 and 0.00498
absorbance (Results of absorbance analysis) ([2]; urine sample 37, lung cancer): 0.058 and 0.065 and 0.062
absorbance (Results of absorbance analysis) ([2]; urine sample 38, lung cancer): 0.0194 and 0.01741 and 0.0185
absorbance (Results of absorbance analysis) ([2]; urine sample 40, lung cancer): 0.0572 and 0.03085 and 0.0469
absorbance (Results of absorbance analysis) ([2]; urine sample 41, lung cancer): 0.0138 and 0.0163 and 0.0156
absorbance (Results of absorbance analysis) ([2]; urine sample 42, lung cancer): 0.1543 and 0.1976 and 0.175
absorbance (Results of absorbance analysis) ([2]; urine sample 43, lung cancer): 0.0366
absorbance (Results of absorbance analysis) ([3]; urine sample 1Z): 0.00000
absorbance (Results of absorbance analysis) ([3]; urine sample 2Z): 0.00000
absorbance (Results of absorbance analysis) ([3]; urine sample 3Z): 0.00000
absorbance (Results of absorbance analysis) ([3]; urine sample 4Z): 0.00000
absorbance (Results of absorbance analysis) ([3]; urine sample 5Z): 0.00000
absorbance (Results of absorbance analysis) ([3]; urine sample 6Z): 0.00000
absorbance (Results of absorbance analysis) ([3]; urine sample 7Z): 0.00000
absorbance (Results of absorbance analysis) ([3]; urine sample 8Z): 0.00000
absorbance (Results of absorbance analysis) ([3]; urine sample 9Z): 0.00000
absorbance (Results of absorbance analysis) ([3]; urine sample 10Z): 0.00000
absorbance (Results of absorbance analysis) ([3]; urine sample 11Z): 0.00000
absorbance (Results of absorbance analysis) ([3]; urine sample 12Z): 0.00000
absorbance (Results of absorbance analysis) ([3]; urine sample 13Z): 0.00000
absorbance (Results of absorbance analysis) ([3]; urine sample 14Z): 0.00000
absorbance (Results of absorbance analysis) ([3]; urine sample 15Z): 0.00000
absorbance (Results of absorbance analysis) ([3]; urine sample 16Z): 0.00000
absorbance (Results of absorbance analysis) ([3]; urine sample 17Z): 0.00000
absorbance (Results of absorbance analysis) ([3]; urine sample 18Z): 0.00000
absorbance (Results of absorbance analysis) ([3]; urine sample 19Z): 0.00000
absorbance (Results of absorbance analysis) ([3]; urine sample 20Z): 0.00000
absorbance (Results of absorbance analysis) ([3]; urine sample 21Z): 0.00000
absorbance (Results of absorbance analysis) ([3]; urine sample 22Z): 0.00000
absorbance (Results of absorbance analysis) ([3]; urine sample 23Z): 0.00000
absorbance (Results of absorbance analysis) ([3]; urine sample 24Z): 0.00000
absorbance (Results of absorbance analysis) ([3]; urine sample 25Z): 0.00000
increase in absorbance / hydrolysis ([3]; urine samples from healthy persons 1Z to 25Z): does not lead to an increase in absorbance
